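Cells were grown in 96-well plates and exposed to each compound for 48 hours at five concentrations; endpoints were interpolated linearly between bracketing concentrations, or set to the highest concentration if not reached. GI50 marks 50% less growth.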 Calls of active or inactive are those of the source. No stated cut-off is given here; in the data, active = GI50 up to about 1.1 µM and inactive = higher.

Holding throughout (experiment): growth of human tumour cells (NCI), 48 h
Test [1] has as its system 786-0.
Test [2] relates to T47D.
Test [3] has as its system EKVX.
Test [4] deals with DU-145.
Test [5] deals with SF-268.
The subject of test [6] is MDA-N.
In test [7] the test system is SNB-75.
Test [8] has as its system M14.
Test [9] relates to UACC-257.
For test [10], the system named is CAKI-1.
Test [11] relates to SF-295.
Test [12] relates to NCI-H226.
Test [13] deals with OVCAR-4.
Test [14] concerns SK-MEL-28.
In test [15] the test system is RXF 393.
In test [16] the test system is COLO 205.
The subject of test [17] is HOP-92.
In test [18] the test system is LOX IMVI.
Test [19] concerns MOLT-4.
The test system of test [20] is MDA-MB-231.

Regarding `C1CCCCC2(CCCCCCCCC3(CCC1)OCCO3)OCCO2`, the GI50 in test [1], in test [2], in test [3], in test [4], in [5] and in test [6] was > 100 µM (inactive) each time. In addition, the GI50 in test [7], in [8], in test [9], in test [10], in [11] and in test [12] was > 100 µM (inactive) in each case. The GI50 in test [13], in [14], in test [15], in [16], in test [17] and in test [18] was > 100 µM (inactive) each time.
For the compound `COc1ccc(C2c3cc4c(cc3OC(N3CCCCC3)C2C)OCO4)cc1` (stereo not drawn), the GI50 in [19] was > 100 µM (inactive); in test [1], 80.2 µM (inactive); in test [2], 71 µM (inactive); in test [3], > 100 µM (inactive); in test [4] it was > 100 µM (inactive); in [5], > 100 µM (inactive). The GI50 is > 100 µM (inactive) in [6]; 35.6 µM (inactive) in test [7]; > 100 µM (inactive) in test [8]; > 100 µM (inactive) in test [9]; 36.6 µM (inactive) in test [10]; 54.6 µM (inactive) in test [11]. Further, the GI50 in test [14], in [16] and in [18] was > 100 µM (inactive) in each case.
On to `COP(=O)(OC)C(C)(C)NC(=O)NC(F)(F)F`, for which the GI50 in test [19], in test [1], in test [2], in test [3], in [4] and in test [5] was > 100 µM (inactive) throughout. Further, the GI50 in test [6] was > 100 µM (inactive); in [7] it was > 100 µM (inactive); in test [8], 0.0401 µM (active); in [9], > 100 µM (inactive); in test [10], 0.01 µM (active); in [11] it was > 100 µM (inactive). In addition, the GI50 in test [12] was 22.2 µM (inactive); in test [13] it was > 100 µM (inactive); in test [14], > 100 µM (inactive); in test [15], > 100 µM (inactive); in test [16], > 100 µM (inactive); in [20] it was > 100 µM (inactive). Also, in test [18], the GI50 is > 100 µM (inactive).
For `CC(=O)NC1C(OCc2ccccc2)OC(CO)C(O)C1OCC(=O)NC(C)C(=O)NC(CCC(=O)OCCNC(=O)c1cccc2cc3ccccc3nc12)C(N)=O` (stereo not drawn), the GI50 in test [19] was 6.82 µM (inactive); in test [1], 18.7 µM (inactive); in test [2] it was 22.5 µM (inactive); in test [3], 24.9 µM (inactive); in test [4], 11.3 µM (inactive); in [5], 22.3 µM (inactive). Besides, the GI50 in test [6] was 26.4 µM (inactive); in test [7] it was 20.5 µM (inactive); in test [8] it was 20.6 µM (inactive); in test [9], 28.2 µM (inactive); in test [10], 14.8 µM (inactive); in [11], 21.4 µM (inactive). Besides, the GI50 in [12] is 18.5 µM (inactive); in test [13], 20.8 µM (inactive); in test [14] it was 19.4 µM (inactive); in [15], 16.5 µM (inactive); in test [16], 21.3 µM (inactive); in [17], 23.2 µM (inactive). Besides, the GI50 in test [18] is 11.2 µM (inactive).
Regarding `N=C(N)N/N=C/c1c(-c2ccccc2)nc2ccn3c(/C=N/N=C(N)N)c(-c4ccccc4)nc3n12`, the GI50 in test [19] is > 100 µM (inactive); in test [1], 82.6 µM (inactive); in test [2], > 100 µM (inactive); in [3], 21.9 µM (inactive); in test [4], 58.1 µM (inactive); in test [5], > 100 µM (inactive). The GI50 in test [7] was > 100 µM (inactive); in test [8], 49.3 µM (inactive); in test [9], 23.5 µM (inactive); in test [10], > 100 µM (inactive); in test [11], 55.3 µM (inactive); in [12], > 100 µM (inactive). In addition, the GI50 in [13] was > 100 µM (inactive); in test [14], 39.5 µM (inactive); in test [15] it was > 100 µM (inactive); in test [16], 43.3 µM (inactive); in test [20], > 100 µM (inactive); in [17], > 100 µM (inactive). Besides, the GI50 in test [18] was 48.8 µM (inactive).
As for `CCCCCCCC/C=C/CCCCCCCC1CC(O)C(=O)O1` (stereo not drawn), the GI50 in [19] was 32.9 µM (inactive); in test [1], 42.4 µM (inactive); in test [2], 39.5 µM (inactive); in [3] it was 50.8 µM (inactive); in test [4], 36.7 µM (inactive); in test [5], 46.2 µM (inactive). The GI50 in test [6] was 59.7 µM (inactive); in test [7] it was 35.7 µM (inactive); in test [8], 41.4 µM (inactive); in test [9], 46.7 µM (inactive); in test [11], 30.7 µM (inactive); in test [12], > 100 µM (inactive). For the same compound, the GI50 is 43.2 µM (inactive) in test [13]; 72.3 µM (inactive) in test [14]; 30.1 µM (inactive) in test [16]; > 100 µM (inactive) in [20]; 26.7 µM (inactive) in [17]; 78.3 µM (inactive) in [18].
As for `COc1ccc2c(c1)N=C1CSC(c3cc([N+](=O)[O-])ccc3Cl)N1C2` (stereo not drawn), the GI50 in [19] was 22.5 µM (inactive); in test [1], 26.2 µM (inactive); in [2] it was 29.5 µM (inactive); in test [3], 18.3 µM (inactive); in test [5], 34.5 µM (inactive); in [6] it was 20.1 µM (inactive). Moreover, the GI50 in test [7] is 19.2 µM (inactive); in [8], 27.5 µM (inactive); in [9], 15.8 µM (inactive); in test [10], 22 µM (inactive); in test [11], 30.5 µM (inactive); in test [12], 62.8 µM (inactive). Besides, the GI50 in test [13] was 23.8 µM (inactive); in test [14] it was 17.2 µM (inactive); in test [15], 19.8 µM (inactive); in test [16], 30.1 µM (inactive); in test [20], 20.8 µM (inactive); in [17], 19.6 µM (inactive). Besides, the GI50 in [18] is 33 µM (inactive).
Take `CC(=O)OCC12CN(C#N)C3C4COC(CC41)C1(C(=O)N(C)c4ccccc41)C32` (stereo not drawn): the GI50 was 7.48 µM (inactive) in test [19]; 28.3 µM (inactive) in test [1]; 18.8 µM (inactive) in [2]; 20.7 µM (inactive) in test [3]; 15.4 µM (inactive) in test [4]; 29.1 µM (inactive) in test [5]. Besides, the GI50 in [7] is 26.5 µM (inactive); in test [8], 20.2 µM (inactive); in [9], 16.9 µM (inactive); in test [10], 17.3 µM (inactive); in [11] it was 49.1 µM (inactive); in test [12] it was 15.8 µM (inactive). The GI50 is 16.1 µM (inactive) in [13]; 19.2 µM (inactive) in test [14]; 12.1 µM (inactive) in test [15]; 16.7 µM (inactive) in [16]; 13.4 µM (inactive) in test [20]; 19.7 µM (inactive) in test [17]. Further, the GI50 in test [18] was 20.6 µM (inactive).
Regarding `Cc1cc(C(F)(F)F)cc(-n2nc(NS(=O)(=O)c3cc(C)c(Cl)cc3S)nc2N)n1`, the GI50 is 24.3 µM (inactive) in [19]; 44.6 µM (inactive) in test [1]; 57.1 µM (inactive) in [2]; 55.6 µM (inactive) in [3]; 92.9 µM (inactive) in [5]; 52.8 µM (inactive) in test [6]. Further, the GI50 in test [7] was > 100 µM (inactive); in test [8], 54.1 µM (inactive); in test [9], > 100 µM (inactive); in test [10] it was 7.46 µM (inactive); in [11], 8.79 µM (inactive); in [12] it was 40.3 µM (inactive). The GI50 in test [13] was > 95.3 µM (inactive); in test [14], 55.3 µM (inactive); in test [15] it was > 100 µM (inactive); in test [16], > 100 µM (inactive); in test [20], 37.7 µM (inactive); in test [17], 32.7 µM (inactive). The GI50 in test [18] was 18.7 µM (inactive).
With `FC1(F)ON2CCc3ccccc3C2[C@H]1c1ccccc1` (stereo partly drawn), the GI50 in test [19] was > 10 µM (inactive); in test [1], 26.4 µM (inactive); in test [2] it was 55.8 µM (inactive); in [3] it was > 10 µM (inactive); in test [4] it was > 10 µM (inactive); in [5] it was > 10 µM (inactive). The GI50 in test [6] was > 10 µM (inactive); in [7], 16.7 µM (inactive); in test [8] it was 82 µM (inactive); in test [9] it was > 10 µM (inactive); in [10] it was > 10 µM (inactive); in [11] it was > 10 µM (inactive). Further, the GI50 was 35.8 µM (inactive) in test [12]; > 10 µM (inactive) in [13]; > 10 µM (inactive) in [14]; 76.4 µM (inactive) in test [15]; > 10 µM (inactive) in test [16]; 48.9 µM (inactive) in [20]. Moreover, the GI50 in [18] is 91 µM (inactive).
As for `COc1cc(C2=C(c3cc(OC)c4ccccc4c3OC)C(=O)c3ccccc3C2=O)c(OC)c2ccccc12`, the GI50 in test [19], in test [1], in test [2], in [3], in test [4] and in test [5] was > 100 µM (inactive) each time. Further, the GI50 in test [6] is > 100 µM (inactive); in test [7], > 100 µM (inactive); in [8], 82.4 µM (inactive); in test [9] it was > 100 µM (inactive); in test [10], > 100 µM (inactive); in test [11], > 100 µM (inactive). Moreover, the GI50 was 59.6 µM (inactive) in [12]; 1.14 µM (inactive) in test [13]; > 100 µM (inactive) in [14]; > 100 µM (inactive) in [15]; > 100 µM (inactive) in test [16]; > 100 µM (inactive) in test [17]. Moreover, in test [18], the GI50 was > 100 µM (inactive).

These data come from ChEMBL document CHEMBL1201862, “PubChem BioAssay data set” (2004).
